Test results taken from patent publication US6706750B1, “Indole derivatives process for their preparation, pharmaceutical compositions containing them and their medicinal application” (priority 1999, dated 2004).
Counter-ions that a name gives are not always drawn.

Assays:
[1] = target: T1, 5-HT2C receptor (Homo sapiens, UniProt P28335); assay: Radioligand binding to the 5-HT2C receptor ([3H]-5-HT, CHO cell line)
T1 construct: expressed in transfected cells; host or cells: CHO cell line
T1 sequence (P28335 33-458): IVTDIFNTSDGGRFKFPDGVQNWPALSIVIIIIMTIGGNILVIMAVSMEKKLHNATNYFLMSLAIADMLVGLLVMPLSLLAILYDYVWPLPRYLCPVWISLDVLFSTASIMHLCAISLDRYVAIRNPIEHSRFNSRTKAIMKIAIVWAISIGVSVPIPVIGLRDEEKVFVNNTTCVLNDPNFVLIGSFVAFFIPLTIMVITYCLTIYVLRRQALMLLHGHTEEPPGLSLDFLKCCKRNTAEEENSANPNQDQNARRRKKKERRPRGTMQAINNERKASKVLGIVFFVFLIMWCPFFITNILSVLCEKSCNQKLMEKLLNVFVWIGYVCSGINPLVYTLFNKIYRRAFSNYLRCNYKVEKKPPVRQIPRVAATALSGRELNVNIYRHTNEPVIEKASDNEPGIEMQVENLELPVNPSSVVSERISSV
Description: (§1) 1. Binding to Serotonin Receptors
(§2) The binding of compounds of formula (I) to serotonin receptors was determined in vitro by standard methods. The preparations were investigated in accordance with the assays given hereinafter.
Method (a): For the binding to the 5-HT2C receptor the 5-HT2C receptors were radiolabelled with [^3H]-5-HT. The affinity of the compounds for 5-HT2C receptors in a CHO cell line was determined according to the procedure of D. Hoyer, G. Engel and H.O. Kalkman, European J. Pharmacol., 1985, 118, 13-23.

[2] = target: T2, human 5-HT2B receptors (Homo sapiens, UniProt P41595); assay: Radioligand binding to the 5-HT2B receptor ([3H]-5-HT, CHO cell line)
T2 construct: expressed in transfected cells; host or cells: CHO cell line
Description: as §1, §2
Method (b): For the binding to the 5-HT2B receptor the 5-HT2B receptors were radiolabelled with [^3H]-5-HT. The affinity of the compounds for human 5-HT2B receptors in a CHO cell line was determined according to the procedure of K. Schmuck, C. Ullmer, P. Engels and H. Lubbert, FEBS Lett., 1994, 342, 85-90.

[3] = target: T3, h5-HT2C (Homo sapiens, UniProt P28335); assay: Functional activity, FLIPR calcium assay in CHO cells expressing h5-HT2C; assay type: cell-based; details: for Emax: CHO, maximum fluorescent signal compared with 10 μM 5-HT (defined as 100%), read-out: h5-HT2C Relative Efficacy; for EC50: FLIPR, CHO cells
T3 construct: expressed in transfected cells; host or cells: CHO cells
T3 sequence (P28335 33-458): T1 sequence (P28335 33-458)
Description: (§3) The functional activity of compounds of formula (I) was assayed using a Fluorimetric Imaging Plate reader (FLIPR) in the following manner.
(§4) CHO cells expressing either the h5-HT2C or h5-HT2A receptors were counted and plated into standard 96 well microtitre plates before the day of testing to give a confluent monolayer. The following day the cells were dye loaded with the calcium sensitive dye Fluo 3-AM by incubation with serum free culture maintenance media containing pluronic acid and Fluo 3-AM dissolved in DMSO at 37° C. in a CO2 incubator at 95% humidity for approximately 90 minutes. Unincorporated dye was removed by washing with Hanks balanced salt solution containing 20 mM HEPES and 2.5 mM probenecid (the assay buffer) using an automated cell washer to leave a total volume of 100 μL/well.
(§5) The drug (dissolved in 50 μL of assay buffer) was added at a rate of 70 μL/sec to each well of the FLIPR 96 well plate during fluorescence measurements. The measurements are taken at 1 sec intervals and the maximum fluorescent signal was measured (approx 10-15 secs after drug addition) and compared with the response produced by 10 μM 5-HT (defined as 100%) to which it is expressed as a percentage response (relative efficacy). Dose response curves were constructed using Graphpad Prism (Graph Software Inc.).

[4] = target: T4, h5-HT2A receptors (Homo sapiens, UniProt P28223); assay: Functional activity, FLIPR calcium assay in CHO cells expressing h5-HT2A; assay type: cell-based; details: for Emax: CHO, maximum fluorescent signal compared with 10 μM 5-HT (defined as 100%), read-out: h5-HT2A Relative Efficacy
T4 construct: expressed in transfected cells; host or cells: CHO cells
Description: as §3, §4, §5

[5] = target: T5, 5-HT2A receptor (Homo sapiens, UniProt P28223); assay: Radioligand binding to the 5-HT2A receptor ([125I]-DOI, CHO cell line)
T5 construct: expressed in transfected cells; host or cells: CHO cell line
Description: as §1, §2
Method (c): For the binding to the 5-HT2A receptor the 5-HT2A receptors were radiolabelled with [^125I]-DOI. The affinity of the compounds for 5-HT2A receptors in a CHO cell line was determined according to the procedure of D. J. McKenna and S. J. Peroutka, J. Neurosci., 1989, 9/10, 3482-90.

T4 sequence (P28223 whole entry): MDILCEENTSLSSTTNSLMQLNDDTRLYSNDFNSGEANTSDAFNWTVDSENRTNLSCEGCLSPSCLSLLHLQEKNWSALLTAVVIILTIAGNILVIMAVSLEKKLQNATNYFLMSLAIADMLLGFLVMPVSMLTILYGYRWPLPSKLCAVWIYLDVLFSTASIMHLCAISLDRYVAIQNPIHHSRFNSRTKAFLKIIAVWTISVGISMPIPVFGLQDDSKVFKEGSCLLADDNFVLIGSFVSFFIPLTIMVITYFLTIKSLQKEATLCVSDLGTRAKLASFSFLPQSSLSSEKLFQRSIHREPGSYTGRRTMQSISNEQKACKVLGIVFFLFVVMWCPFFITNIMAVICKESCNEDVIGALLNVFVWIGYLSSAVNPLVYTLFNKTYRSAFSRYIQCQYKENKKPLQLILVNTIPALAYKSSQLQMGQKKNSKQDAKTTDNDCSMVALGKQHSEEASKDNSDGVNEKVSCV
T5 sequence (P28223 whole entry): as above
T2 sequence (P41595 whole entry): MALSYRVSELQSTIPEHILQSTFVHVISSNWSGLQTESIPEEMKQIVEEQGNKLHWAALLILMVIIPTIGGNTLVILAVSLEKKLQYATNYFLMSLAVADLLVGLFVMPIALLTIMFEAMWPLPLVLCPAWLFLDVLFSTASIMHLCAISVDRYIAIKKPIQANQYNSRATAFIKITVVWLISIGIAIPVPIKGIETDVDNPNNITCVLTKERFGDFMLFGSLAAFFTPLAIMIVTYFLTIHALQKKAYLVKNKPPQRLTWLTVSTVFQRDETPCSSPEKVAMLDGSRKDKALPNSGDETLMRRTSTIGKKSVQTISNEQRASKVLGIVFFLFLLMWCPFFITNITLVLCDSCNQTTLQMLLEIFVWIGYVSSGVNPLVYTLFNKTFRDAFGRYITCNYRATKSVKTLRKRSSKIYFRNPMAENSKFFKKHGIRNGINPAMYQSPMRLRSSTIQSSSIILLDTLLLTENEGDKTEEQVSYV

C[C@H](N)Cn1c2c(c3cc(F)ccc31)CCC2 (as salt: fumarate) (hydrate or solvate) [Example 2, (S)-1-(7-fluoro-1,2,3,4-tetrahydrocyclopent[b]indol-4-yl)-2-propylamine]
melting point: 161 to 162 °C

C[C@H](N)Cn1c2c(c3c(Cl)cccc31)CCC2 (as salt: fumarate) [Example 4, (S)-1-(8-chloro-1,2,3,4-tetrahydrocyclopent[b]indol-4-yl)-2-propylamine]
melting point: 172 to 173 °C (dec.)

COc1ccc2c3c(n(C[C@H](C)N)c2c1)CCC3 (as salt: fumarate) [Example 11, (S)-1-(6-methoxy-1,2,3,4-tetrahydrocyclopent[b]indol-4-yl)-2-propylamine]
melting point: 182 °C

COc1cc2c(cc1F)c1c(n2C[C@H](C)N)CCC1 (as salt: fumarate) [Example 37, (S)-1-(7-fluoro-6-methoxy-1,2,3,4-tetrahydrocyclopent[b]indol-4-yl)-2-propylamine]
melting point: 213 °C (dec.)

C[C@H](N)Cn1c2c(c3ccccc31)CCC2 (as salt: hydrochloride) (hydrate or solvate) [Example 14, (S)-1-(1,2,3,4-tetrahydrocyclopent[b]indol-4-yl)-2-propylamine]
melting point: 233 °C

C[C@H](N)Cn1c2c(c3c(Cl)c(F)ccc31)CCC2 (as salt: hydrochloride) (hydrate or solvate) [Example 18, (S)-1-(8-chloro-7-fluoro-1,2,3,4-tetrahydrocyclopent[b]indol-4-yl)-2-propylamine]
melting point: 252 to 253 °C

C[C@H](N)Cn1c2c(c3c(Cl)cc(Cl)cc31)CCC2 (as salt: hydrochloride) (hydrate or solvate) [Example 26]
melting point: 258 °C

C[C@@H](N)Cn1c2c(c3ccccc31)CCC2 (as salt: hydrochloride) (hydrate or solvate) [Example 30, (R)-1-(1,2,3,4-tetrahydrocyclopent[b]indol-4-yl)-2-propylamine]
melting point: 225 to 231 °C (dec.)

C[C@H](N)Cn1c2c(c3ccc(F)cc31)CCC2 (as salt: hydrochloride) (hydrate or solvate) [Example 31]
melting point: 215 °C

CCSc1ccc2c3c(n(C[C@H](C)N)c2c1)CCC3 (as salt: hydrochloride) [Example 27]
melting point: 115 to 119 °C

C[C@H](N)Cn1c2c(c3c(F)c(F)ccc31)CCC2 [Example 1, (S)-1-(7,8-Difluoro-1,2,3,4-tetrahydrocyclopent[b]indol-4-yl)-2-propylamine fumarate]
Ki [1]: 65 nM
Ki [2]: 40 nM
Emax [3]: 77%
EC50 [3]: 272 nM
Emax [4]: 0%
Ki [5]: 122 nM

C[C@H](N)Cn1c2c(c3cc(F)ccc31)CCC2 [Example 2, (S)-1-(7-fluoro-1,2,3,4-tetrahydrocyclopent[b]indol-4-yl)-2-propylamine]
Emax [3]: 85%
EC50 [3]: 347 nM
Emax [4]: 0%

C[C@H](N)Cn1c2c(c3c(Cl)cccc31)CCC2 [Example 4, (S)-1-(8-chloro-1,2,3,4-tetrahydrocyclopent[b]indol-4-yl)-2-propylamine]
Emax [3]: 65%
EC50 [3]: 179 nM
Emax [4]: 60%

COc1ccc2c3c(n(C[C@H](C)N)c2c1)CCC3 [Example 11, (S)-1-(6-methoxy-1,2,3,4-tetrahydrocyclopent[b]indol-4-yl)-2-propylamine]
Ki [1]: 63 nM
Ki [2]: 210 nM
Emax [3]: 85%
EC50 [3]: 89 nM
Emax [4]: 25%
EC50 ([4]; FLIPR, CHO cells): 1690 nM
Ki [5]: 314 nM
